# Target: AlaI (Streptomyces alanosinicus, UniProt A0A6H1Z626)
# Experiment: co-purification with the enzyme
# Format: binding
# Details: 10 uM FAD also added in assay; pH 8.0
smiles,measurement,value
Cc1cc2nc3c(=O)[nH]c(=O)nc-3n(C[C@H](O)[C@H](O)[C@H](O)COP(=O)(O)OP(=O)(O)OC[C@H]3O[C@@H](n4cnc5c(N)ncnc54)[C@H](O)[C@@H]3O)c2cc1C [FAD],co-purification with the enzyme,"AlaI purified with FAD, hence we still observed activity without exogenous FAD added"

# From article PMC7176540 (Chembiochem : a European journal of chemical biology, 2019)
